Data on 2 molecules can be found in ChEMBL document CHEMBL6120974, “Hydrazide-Based Class I Selective HDAC Inhibitors Completely Reverse Chemoresistance Synergistically in Platinum-Resistant Solid Cancer Cells” (J Med Chem, 2024).

A short description of data set [1]: Lipophilicity, logD of the compound in 1-octanol/PBS buffer at pH 7.4 by HPLC/UV analysis. As to conditions: 1-octanol/PBS buffer, read-out: logD. It counts as physicochemical.
The target in data set [2] is T1, Protein deacetylase HDAC6 (Homo sapiens) (UniProt Q9UBN7).
T1 sequence (whole entry): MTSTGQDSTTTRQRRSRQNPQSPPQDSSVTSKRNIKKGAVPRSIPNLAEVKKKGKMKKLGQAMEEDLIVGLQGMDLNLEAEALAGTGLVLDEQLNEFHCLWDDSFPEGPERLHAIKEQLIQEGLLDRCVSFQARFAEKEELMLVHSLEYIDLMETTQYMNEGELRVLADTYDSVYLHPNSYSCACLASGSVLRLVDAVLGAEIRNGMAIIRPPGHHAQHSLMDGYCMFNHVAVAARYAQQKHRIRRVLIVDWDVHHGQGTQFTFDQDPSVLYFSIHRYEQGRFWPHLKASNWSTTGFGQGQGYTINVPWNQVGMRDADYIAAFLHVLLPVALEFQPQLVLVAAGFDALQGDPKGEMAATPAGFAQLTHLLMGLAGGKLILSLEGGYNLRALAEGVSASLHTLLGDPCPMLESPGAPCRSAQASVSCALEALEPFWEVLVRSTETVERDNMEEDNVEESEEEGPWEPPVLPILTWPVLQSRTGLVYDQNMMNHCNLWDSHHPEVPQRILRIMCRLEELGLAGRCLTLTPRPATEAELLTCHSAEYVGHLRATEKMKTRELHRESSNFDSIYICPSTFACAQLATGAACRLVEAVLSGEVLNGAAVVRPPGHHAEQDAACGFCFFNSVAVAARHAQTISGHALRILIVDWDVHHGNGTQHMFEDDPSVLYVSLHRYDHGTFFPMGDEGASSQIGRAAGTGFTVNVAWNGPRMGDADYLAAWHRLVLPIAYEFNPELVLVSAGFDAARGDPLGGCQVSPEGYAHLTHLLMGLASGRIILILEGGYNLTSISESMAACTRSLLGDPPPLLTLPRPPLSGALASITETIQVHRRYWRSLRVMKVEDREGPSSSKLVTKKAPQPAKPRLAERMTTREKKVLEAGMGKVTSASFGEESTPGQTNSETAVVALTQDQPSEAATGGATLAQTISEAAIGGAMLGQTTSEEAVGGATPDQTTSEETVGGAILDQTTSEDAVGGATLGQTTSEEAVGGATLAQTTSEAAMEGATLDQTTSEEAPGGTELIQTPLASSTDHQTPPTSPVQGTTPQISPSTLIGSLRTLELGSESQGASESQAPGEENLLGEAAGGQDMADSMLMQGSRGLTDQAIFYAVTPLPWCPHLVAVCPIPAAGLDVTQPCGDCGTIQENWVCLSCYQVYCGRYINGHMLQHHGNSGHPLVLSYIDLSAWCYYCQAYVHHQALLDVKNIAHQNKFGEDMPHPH
As to the kind of experiment: Inhibition of N-terminal GST-tagged full length recombinant human HDAC6 (1 to 1215 end residues) expressed in sf9 cells at > 10 uM using ZMAL (Z-Lys(Ac)-AMC as fluorogenic substrate preincubated with compound for 60 mins followed by substrate addition and measured after 90 mins by fluorescence based microplate reader analysis relative to control. As to conditions: time 150.0 min.

The subject of data set [3] is Cal27CisR. Kind of data set: Induction of apoptosis in cisplatin resistant human Cal27CisR cells assessed as decrease in p21 expression at 0.316 uM incubated for 24 to 72 hrs by Immunoblotting analysis. In kind it is functional, cell-based. The settings on record: time 24-72 hrs.
Data set [4] in a line: Solubility of the compound in PBS buffer at pH 7.4 incubated for 72 hrs by HPLC/UV analysis. It counts as physicochemical.
In data set [5] the test system is Cal27CisR. Kind of data set: Induction of apoptosis in cisplatin resistant human Cal27CisR cells assessed as decrease in survivin expression at 0.316 uM incubated for 24 to 72 hrs by Immunoblotting analysis. It counts as functional, cell-based. The settings on record: time 24-72 hrs. Background: A western blot detects proteins with antibodies after separation by electrophoresis.

Data set [6] deals with Cal27CisR. As to the kind of experiment: Induction of apoptosis in cisplatin resistant human Cal27CisR cells assessed as decrease in BAX expression at 0.316 uM in presence of cisplatin at 16.5 uM preincubated with compound for 24 to 72 hrs prior to addition of cisplatin and measured after 24 hrs by Immunoblotting analysis. It counts as functional, cell-based. As to conditions: time 48-96 hrs.

Data set [7] deals with Cal27CisR. Kind of data set: Induction of apoptosis in cisplatin resistant human Cal27CisR cells assessed as decrease in Bcl-2 expression at 0.316 uM in presence of cisplatin at 16.5 uM preincubated with compound for 24 to 72 hrs prior to addition of cisplatin and measured after 24 hrs by Immunoblotting analysis. It counts as functional, cell-based. As to conditions: time 48-96 hrs.

The subject of data set [8] is Cal27CisR. Kind of data set: Induction of apoptosis in cisplatin resistant human Cal27CisR cells assessed as decrease in BAX expression at 0.316 uM incubated for 24 to 72 hrs by Immunoblotting analysis. It counts as functional, cell-based. The settings on record: time 24-72 hrs.
For data set [9], the system named is Cal27CisR. As to the kind of experiment: Induction of apoptosis in cisplatin resistant human Cal27CisR cells assessed as decrease in p21 expression at 0.316 uM in presence of cisplatin at 16.5 uM preincubated with compound for 24 to 72 hrs prior to addition of cisplatin and measured after 24 hrs by Immunoblotting analysis. In kind it is functional, cell-based. As to conditions: time 48-96 hrs.

Data set [10] has as its system Cal27CisR. As to the kind of experiment: Induction of apoptosis in cisplatin resistant human Cal27CisR cells assessed as decrease in Bcl-2 expression at 0.316 uM incubated for 24 to 72 hrs by Immunoblotting analysis. As to conditions: time 24-72 hrs. In kind it is functional, cell-based.
The subject of data set [11] is Cal27CisR. As to the kind of experiment: Induction of apoptosis in cisplatin resistant human Cal27CisR cells assessed as decrease in BIM expression at 0.316 uM incubated for 24 to 72 hrs by Immunoblotting analysis. It counts as functional, cell-based. As to conditions: time 24-72 hrs.
In data set [12] the target is T1, Protein deacetylase HDAC6 (Homo sapiens). Kind of data set: Inhibition of N-terminal GST-tagged full length recombinant human HDAC6 (1 to 1215 end residues) expressed in sf9 cells at > 3.33 uM using ZMAL (Z-Lys(Ac)-AMC as fluorogenic substrate preincubated with compound for 60 mins followed by substrate addition and measured after 90 mins by fluorescence based microplate reader analysis relative to control.

In brackets after ≈: the same amount, converted by molar mass. Activity calls are given as the source filed them. The calls are words filed in the database; no cut-off is given here.

In general, logD refers to lipophilicity at a set pH, counting ionised and neutral species. For orientation: inhibition means the drop in the measured response relative to a control, in per cent. In general, solubility refers to the dissolved amount per volume that the medium holds. A higher solubility goes with a readily soluble substance. For `CCCNNC(=O)c1ccc(CN(CC(=O)NCc2ccccc2)C(=O)c2ccc(N(C)C)cc2)cc1`, the logD in data set [1] came out at 3.76. For the same molecule, the inhibition in [2] is below 25%. In addition, the outcome in the data set on Cal27CisR [3], with Cal27CisR [5], in the data set on Cal27CisR [8], with Cal27CisR [10] and in the data set with Cal27CisR [11] was inactive. This molecule also returned a solubility at 72 h in data set [4] of 16.8 µg/mL (≈ 33.5 µM). Further, the result in the data set on Cal27CisR [6], with Cal27CisR [7] and in the data set with Cal27CisR [9] was Active.
As for `CCCCNNC(=O)c1ccc(CN(CC(=O)NCc2ccccc2)C(=O)c2ccc(N(C)C)cc2)cc1`, in [12], the inhibition was below 25%.
